Assay results published in US10711000B2 (Fronthera U.S. Pharmaceuticals LLC, priority 2018, dated 2020).
Like-named read-outs stand apart in the source and are kept apart here.

Molecular target: T1, Autotaxin (Homo sapiens, UniProt Q13822)
T1 construct: from tissue; host or cells: pooled human plasma
Test: LPA formation in pooled human plasma (ex vivo autotaxin inhibition)
Assay type: biochemical
Details: 2 hours incubation
Method: Autotaxin is a plasma phosphodiesterase that converts lysophosphatidylcholine (LPC) into lysophosphatidic acid (LPA), therefore LPA formation was used to evaluate the potency of autotaxin inhibitors. The potency of compound was evaluated ex vivo in pooled human plasma.
Various concentrations of compound were incubated with plasma for 2 hours, and the LPA 18:2 and 20:4 concentration was measured by LC/MS/MS. To determine the LPA18:2 or 20:4 concentration in study plasma, a 10× calibration standard of LPA 18:2 or 20:4 were prepared by serial dilution in butyl alcohol: 20000, 10000, 5000, 2000, 1000, 500, 200, 100, 50, 20, and 10 ng/mL. 3 μL of calibration standard solution was added into 27.0 μL of blank plasma in 1.5-mL microcentrifuge tubes to generate 1× calibration standards. The 30.0 μL of standards or study plasma was added into 1.5-mL microcentrifuge tubes. 200 μL of butyl alcohol (containing 25.0 ng/mL LPA17:0 for internal control) was added into each 1.5-mL microcentrifuge tube containing study plasma or calibration standards. After vortexing for 1 minute and centrifuging at 10000 rpm for 10 min, 180 μL of supernatant was transferred into a 96-well plate and the LPA18:2 concentration in the plasma was quantitated using LC/MS/MS together with standards. Briefly, 8 μL of the solutions were injected for LC-MS/MS analysis using an ACQUITY UPLC BEH C18 column (2.1×50 mm, 1.7 μm) with mobile phase A [20 mM NH4OAC in water (0.1% FA)] and phase B [5 mM NH4OAC in water/0.2% FA in ACN=5:95]. Mass spectrometer parameters optimization for LPA18:2 were performed by Deprotonated molecular ion at m/z 433.2 ([M−H]^−) for LPA18:2, 457.2 for LPA20:4 and abundant product ion at m/z 152.8 for both LPA18:2 and LPA20:4 were obtained. Quantitative data were acquired in multiple reaction monitoring (MRM) negative electrospray ionization mode
The inhibition rate of LPA formation was determined by comparing the levels of LPA in treated and non-treated plasma. The data was plotted against the corresponding concentration of compound and the IC50 was calculated through non-linear regression fitting.

[1] = LPA 18:2 by LC/MS/MS, read-out: LPA formation (18:2) (IC50)
[2] = LPA 20:4 by LC/MS/MS, read-out: LPA formation (20:4) (IC50)

Row | SMILES | IC50 [1] [nM] | IC50 [2] [nM]
1 | Cc1cc(N2CCN(C[C@H](O)CO)CC2)cc2c(N(C)c3nc(-c4ccc(F)cc4)c(C#N)s3)c(C3CC3)nn12 [Example 83, (S)-2-((2-cyclopropyl-5-(4-(2,3-dihydroxypropyl)piperazin-1-yl)-7-methylpyrazolo[1,5-a]pyridin-3-yl)(methyl)amino)-4-(4-fluorophenyl)thiazole-5-carbonitrile] | 500 to 1000 | 500 to 1000
2 | CCc1nn2c(C)cc(N3CC4(CN(C(=O)c5ccon5)C4)C3)cc2c1N(C)c1nc(-c2ccc(F)cc2)c(C#N)s1 [Example 70, 2-((2-ethyl-5-(6-(isoxazole-3-carbonyl)-2,6-diazaspiro[3.3]heptan-2-yl)-7-methylpyrazolo[1,5-a]pyridin-3-yl)(methyl)amino)-4-(4-fluorophenyl)thiazole-5-carbonitrile] | 100 to 500 | 100 to 500
3 | CCc1nn2cc(C)c(N3CC4(CN(C(=O)C(C)(C)O)C4)C3)cc2c1N(C)c1nc(-c2ccc(F)cc2)c(C#N)s1 [Example 98, 2-((2-ethyl-5-(6-(2-hydroxy-2-methylpropanoyl)-2,6-diazaspiro[3.3]heptan-2-yl)-6-methylpyrazolo[1,5-a]pyridin-3-yl)(methyl)amino)-4-(4-fluorophenyl)thiazole-5-carbonitrile] | 100 to 500 | 100 to 500
4 | CCc1nn2ccc(N3CC4(CC4C(=O)N4CC(O)C4)C3)cc2c1N(C)c1nc(-c2ccc(F)cc2)c(C#N)s1 (centres unmarked) [Example 7, 2-((2-ethyl-5-(1-(3-hydroxyazetidine-1-carbonyl)-5-azaspiro[2.3]hexan-5-yl)pyrazolo[1,5-a]pyridin-3-yl)(methyl)amino)-4-(4-fluorophenyl)thiazole-5-carbonitrile] | 100 to 500 | 100 to 500
5 | CCc1nn2c(C)cc(N3CC4(CN(C(=O)CO)C4)C3)cc2c1N(C)c1nc(-c2ccc(F)cc2)c(C#N)s1 [Example 29, 2-((2-ethyl-5-(6-(2-hydroxyacetyl)-2,6-diazaspiro[3.3]heptan-2-yl)-7-methylpyrazolo[1,5-a]pyridin-3-yl)(methyl)amino)-4-(4-fluorophenyl)thiazole-5-carbonitrile] | 100 to 500 | 500 to 1000
6 | CCc1nn2c(C)cc(N3CC4(CN(C(=O)[C@H]5COC[C@@H]5O)C4)C3)cc2c1N(C)c1nc(-c2ccc(F)cc2)c(C#N)s1 (stereo in doubt) [Example 59, 2-((2-ethyl-5-(6-(4-hydroxytetrahydrofuran-3-carbonyl)-2,6-diazaspiro[3.3]heptan-2-yl)-7-methylpyrazolo[1,5-a]pyridin-3-yl)(methyl)amino)-4-(4-fluorophenyl)thiazole-5-carbonitrile] | 100 to 500 | 100 to 500
7 | CCc1nn2c(C)cc(N3CCN(CC(=O)N4CC(O)C4)CC3)cc2c1N(C)c1nc(-c2ccc(F)cc2)c(C#N)s1 [Example 23, 2-((2-ethyl-5-(4-(2-(3-hydroxyazetidin-1-yl)-2-oxoethyl)piperazin-1-yl)-7-methylpyrazolo[1,5-a]pyridin-3-yl)(methyl)amino)-4-(4-fluorophenyl)thiazole-5-carbonitrile] | 100 to 500 | 100 to 500
8 | CCc1nn2c(C)cc(N3CCC4(CN(CC(O)CO)C4)C3)cc2c1N(C)c1nc(-c2ccc(F)cc2)c(C#N)s1 (centres unmarked) [Example 55, 2-((5-(2-(2,3-dihydroxypropyl)-2,6-diazaspiro[3.4]octan-6-yl)-2-ethyl-7-methylpyrazolo[1,5-a]pyridin-3-yl)(methyl)amino)-4-(4-fluorophenyl)thiazole-5-carbonitrile] | 100 to 500 | 100 to 500

Other lines, results leading:

Row | IC50 [1] [nM] | IC50 [2] [nM] | SMILES
9 | 100 to 500 | 100 to 500 | CCc1nn2c(C)cc(N3CC4(CN(C(=O)[C@H](C)O)C4)C3)cc2c1N(C)c1nc(-c2ccc(F)cc2)c(C#N)s1 [Example 62, (S)-2-((2-ethyl-5-(6-(2-hydroxypropanoyl)-2,6-diazaspiro[3.3]heptan-2-yl)-7-methylpyrazolo[1,5-a]pyridin-3-yl)(methyl)amino)-4-(4-fluorophenyl)thiazole-5-carbonitrile]
10 | 100 to 500 | 100 to 500 | Cc1cc(N2CC3(CN(C(=O)C45CC(C4)C5)C3)C2)cc2c(N(C)c3nc(-c4ccc(F)cc4)c(C#N)s3)c(C3CC3)nn12 [Example 91, 2-((5-(6-(bicyclo[1.1.1]pentane-1-carbonyl)-2,6-diazaspiro[3.3]heptan-2-yl)-2-cyclopropyl-7-methylpyrazolo[1,5-a]pyridin-3-yl)(methyl)amino)-4-(4-fluorophenyl)thiazole-5-carbonitrile]
11 | ≤ 100 | ≤ 100 | Cc1cn2nc(C3CC3)c(N(C)c3nc(-c4ccc(F)cc4)c(C#N)s3)c2cc1N1CCN(CC(=O)N2CC(O)C2)CC1 [Example 100, 2-((2-cyclopropyl-5-(4-(2-(3-hydroxyazetidin-1-yl)-2-oxoethyl)piperazin-1-yl)-6-methylpyrazolo[1,5-a]pyridin-3-yl)(methyl)amino)-4-(4-fluorophenyl)thiazole-5-carbonitrile]
12 | ≤ 100 | ≤ 100 | CCn1nc2ncc(N3CCN(CC(=O)N4CC(O)C4)CC3)cc2c1N(C)c1nc(-c2ccc(F)cc2)c(C#N)s1 [Compound 115, 2-((2-ethyl-5-(4-(2-(3-hydroxyazetidin-1-yl)-2-oxoethyl)piperazin-1-yl)-2H-pyrazolo[3,4-b]pyridin-3-yl)(methyl)amino)-4-(4-fluorophenyl)thiazole-5-carbonitrile]
13 | ≤ 100 | ≤ 100 | CCc1nn2c(C)cc(N3CC4(CN(C(=O)c5cnco5)C4)C3)cc2c1N(C)c1nc(-c2ccc(F)cc2)c(C#N)s1 [Example 57, 2-((2-ethyl-7-methyl-5-(6-(oxazole-5-carbonyl)-2,6-diazaspiro[3.3]heptan-2-yl)pyrazolo[1,5-a]pyridin-3-yl)(methyl)amino)-4-(4-fluorophenyl)thiazole-5-carbonitrile]
14 | ≤ 100 | ≤ 100 | CCc1nn2cc(F)c(N3CC4(CN(C(=O)N5CCOCC5)C4)C3)cc2c1N(C)c1nc(-c2ccc(F)cc2)c(C#N)s1 [Example 108, 2-((2-ethyl-6-fluoro-5-(6-(morpholine-4-carbonyl)-2,6-diazaspiro[3.3]heptan-2-yl)pyrazolo[1,5-a]pyridin-3-yl)(methyl)amino)-4-(4-fluorophenyl)thiazole-5-carbonitrile]
15 | ≤ 100 | ≤ 100 | CCc1nn2c(C)cc(N3CCC4(CCN(C(=O)N5CC(O)C5)C4)CC3)cc2c1N(C)c1nc(-c2ccc(F)cc2)c(C#N)s1 [Example 37, 2-((2-ethyl-5-(2-(3-hydroxyazetidine-1-carbonyl)-2,8-diazaspiro[4.5]decan-8-yl)-7-methylpyrazolo[1,5-a]pyridin-3-yl)(methyl)amino)-4-(4-fluorophenyl)thiazole-5-carbonitrile]
16 | ≤ 100 | ≤ 100 | Cc1cc(N2CC3(CN(C(=O)C4CN(C)C4)C3)C2)cc2c(N(C)c3nc(-c4ccc(F)cc4)c(C#N)s3)c(C3CC3)nn12 [Example 84, 2-((2-cyclopropyl-7-methyl-5-(6-(1-methylazetidine-3-carbonyl)-2,6-diazaspiro[3.3]heptan-2-yl)pyrazolo[1,5-a]pyridin-3-yl)(methyl)amino)-4-(4-fluorophenyl)thiazole-5-carbonitrile]
17 | ≤ 100 | ≤ 100 | CCc1nn2cc(F)c(N3CC4(CN(C(=O)N5CCN(C)CC5)C4)C3)cc2c1N(C)c1nc(-c2ccc(F)cc2)c(C#N)s1 [Example 105, 2-((2-ethyl-6-fluoro-5-(6-(4-methylpiperazine-1-carbonyl)-2,6-diazaspiro[3.3]heptan-2-yl)pyrazolo[1,5-a]pyridin-3-yl)(methyl)amino)-4-(4-fluorophenyl)thiazole-5-carbonitrile]
18 | ≤ 100 | ≤ 100 | CCc1nn2ccc(N3CCN(CC(=O)N4CC[C@@H](O)C4)CC3)cc2c1N(C)c1nc(-c2ccc(F)cc2)c(C#N)s1 [Example 3, (R)-2-((2-ethyl-5-(4-(2-(3-hydroxypyrrolidin-1-yl)-2-oxoethyl)piperazin-1-yl)pyrazolo[1,5-a]pyridin-3-yl)(methyl)amino)-4-(4-fluorophenyl)thiazole-5-carbonitrile]
19 | ≤ 100 | ≤ 100 | CN(c1nc(-c2ccc(F)cc2)c(C#N)s1)c1c(C2CC2)nn2ccc(N3CC4(CN(C(=O)[C@H]5CCOC5)C4)C3)cc12 [Example 22, (S)-2-((2-cyclopropyl-5-(6-(tetrahydrofuran-3-carbonyl)-2,6-diazaspiro[3.3]heptan-2-yl)pyrazolo[1,5-a]pyridin-3-yl)(methyl)amino)-4-(4-fluorophenyl)thiazole-5-carbonitrile]
